Values joined by “and” are separate entries in the source; they are usually repeats but may differ in a detail not shown here. Equal entries are not always repeated.
What was measured:
Type in all cases: in vivo
[1] = tested on: Croton Oil Induced Topical Inflammation in Mice; assay: Croton oil induced topical inflammation in mice (ear swelling); settings: for Difference in ear Thickness, Mean: group mean, s.c. x3 (Compound 1 10 mg/kg; Indomethacin 30 mg/kg), 6 h after croton oil
[2] = tested on: Sodium Urate Crystal Induced Peritonitis in Mice; assay: Sodium urate crystal (MSU) induced peritonitis in mice (PMN migration)
Procedure: Such crystals are the primary cause of the inflammation associated with acute gouty arthritis.
Male out-bred Swiss albino mice were purchased from Bantin and Kingman (T.O. strain; Hull, Humberside) and maintained on a standard chow pellet diet with tap water ad libitum and a 12:00 h light/dark cycle. All animals were housed for at least 3 days prior to experimentation to allow body weight to reach ˜30 g on the day of the experiment. For this particular experiment body weight was 30±1 (n=32).
Compound 1 was stored at room temperature in the dark. […] Mice received 3 mg mono sodium urate crystals (MSU) given intra-peritoneally at time 0.
Time +6 h: Peritoneal cavities were washed 6 h later with 3 mL of PBS containing 3 mM EDTA, and the number of migrated leukocytes determined, by taking an aliquot (100 μL) of the lavage fluid and diluting 1:10 in Turk's solution (0.01% crystal violet in 3% acetic acid). The samples were then vortexed and 10 μL of the stained cell solution were placed in a Neubauer hematocytometer. Differential cell counts were performed using a light microscope (Olympus B061). In view of their chromatic characteristics and their nucleus and cytoplasm appearance, cells polymorphonuclear cells (PMN, >95% neutrophils) could be easily differentiated
Experimental groups are described below:
Data are shown for single mice, and also shown as mean ±SE of (n) mice per group. Statistical differences were determined by Student's t test. A P value <0.05 was taken as significant.
PMN influx into the peritoneal cavity was measured at the 6 h time-point after collection of the lavage fluids and specific staining as described in the experimental section.

[3] = tested on: Zymosan Induced Peritonitis in Mice; assay: Zymosan induced peritonitis in mice (PMN influx into peritoneal cavity); settings: for effect on PMN influx (in words): Imetit, thioperamide 5 mg/kg, s.c.; for PMN (10^6 per mouse), mean: group mean; for PMN (10^6 per mouse), mean / PMN (10^6 per mouse), single mice: s.c. at -15 min and +2 h (Compound 1 10 mg/kg; Imetit, Thioperamide 5 mg/kg), 1 mg zymosan A i.p.; for PMN (10^6 per mouse), single mice: lavage at 4 h
Procedure: This is commonly used to induce peritonitis in mice and appears to act in a mast cell dependent manner. Male out-bred Swiss albino mice were purchased from Bantin and Kingman (T.O. strain; Hull, Humberside) and maintained on a standard chow pellet diet with tap water ad libitum and a 12:00 h light /dark cycle. All animals were housed for at least 3 days prior to experimentation to allow body weight to reach ˜30 g on the day of the experiment. […] Animals were briefly (30-60 s) anesthetized with halothane for all s.c. and i.p. treatments described below. Drugs were stored at room temperature, in the dark. On the day of the experiment, drugs were dissolved in sterile PBS as depicted below, and generously vortexed. […] Time −15 min: Compounds or PBS administered s.c. at the reported doses. Time 0: At time 0, mice received 1 mg zymosan A (Sigma) i.p. Time +2 h: Compounds or PBS administered s.c. at the reported doses. […] Peritoneal cavities were washed 4 h later with 3 mL of PBS containing 3 mM EDTA, and the number of migrated leukocytes determined, by taking an aliquot (100 μL) of the lavage fluid and diluting 1:10 in Turk's solution (0.01% crystal violet in 3% acetic acid). The samples were then vortexed and 10 μL of the stained cell solution were placed in a Neubauer haemocytometer. Differential cell counts were performed using a light microscope (Olympus B061). […] Statistical differences were determined by Anova followed by Bonferroni's post-hoc test.

Row | SMILES | Difference in ear Thickness, Mean [1] [× 0.01 mm] | effect on PMN migration (in words) ([2]; 10 mg/kg s.c., 6 h) | PMN (10^6 per mouse), mean ([2]; group mean, 10 mg/kg s.c. at -15 min, +2 h and +4 h, 3 mg MSU crystals i.p., 6 h time-point) | PMN (10^6 per mouse), single mice ([2]; single mice, 10 mg/kg s.c. at -15 min, +2 h and +4 h, 3 mg MSU crystals i.p., 6 h time-point, 10 mg/kg) | effect on PMN influx (in words) ([3]; Compound 1 10 mg/kg, 4 h) | PMN (10^6 per mouse), mean ([3]; 4 h) | PMN (10^6 per mouse), single mice [3] | effect on ear swelling (in words) ([1]; 10 mg/kg x 3 s.c.) | inhibition at 10 mg/kg ([1]; Mus musculus, sc, 6 h, read-out: % inhib (ear swelling)) [%] | Difference in ear Thickness, single mice ([1]; single mice, s.c. 30 min before, 2 and 4 h after croton oil (Compound 1 10 mg/kg; Indomethacin 30 mg/kg), measured 6 h after croton oil) | % inhib (PMN influx) ([3]; vs PBS group, Compound 1 10 mg/kg, Thioperamide 5 mg/kg s.c., 4 h)
1 | COc1ccc2c(c1)c(CC(=O)O)c(C)n2C(=O)c1ccc(Cl)cc1 [Indomethacin, reference compound] | 10.0 |  |  |  |  |  |  |  |  |  | 
2 | CN1CCN(C(=O)c2cc3cc(Cl)ccc3[nH]2)CC1 [Compound 1, (5-Chloro-1H-indol-2-yl)-(4-methyl-piperazin-1-yl)-methanone] | 12.0 | significantly reduced PMN migration | 6.8 10^6 per mouse | 7.8 10^6 per mouse (2×) and 4.5 10^6 per mouse and 3.0 10^6 per mouse and 8.1 10^6 per mouse and 9.3 10^6 per mouse and 6.6 10^6 per mouse and 7.2 10^6 per mouse | significantly reduced PMN influx | 6.6 10^6 per mouse | 9.9 10^6 per mouse and 3.6 10^6 per mouse and 9.3 10^6 per mouse and 3.3 10^6 per mouse and 8.1 10^6 per mouse and 5.1 10^6 per mouse and 6.9 10^6 per mouse | significantly reduced the swelling | 28 | 12 × 0.01 mm and 10 × 0.01 mm and 13 × 0.01 mm and 9 × 0.01 mm and 16 × 0.01 mm | 
3 | S=C(NC1CCCCC1)N1CCC(c2cnc[nH]2)CC1 [Thioperamide] |  |  |  |  | significant inhibitory effect | 9.3 10^6 per mouse | 9.3 10^6 per mouse and 16.5 10^6 per mouse and 7.2 10^6 per mouse and 10.8 10^6 per mouse and 5.4 10^6 per mouse and 9.9 10^6 per mouse and 6.9 10^6 per mouse and 8.1 10^6 per mouse |  |  |  | (−46%)
4 | N=C(N)SCCc1cnc[nH]1 [Imetit] |  |  |  |  | inactive | 17.3 10^6 per mouse |  |  |  |  | 
